Our source for the LC50 and mortality values is ChEMBL document CHEMBL1165859, “Synthesis, antiproliferative, acute toxicity and assessment of antiandrogenic activities of some newly synthesized steroidal lactams” (Eur J Med Chem, 2010).

A word on the LC50: it is the concentration that kills 50% of the test population. Broadly, the mortality is the share of the test organisms that died.

Data set [1] in a line: Cytotoxicity against Balb/C mouse macrophages assessed as cell viability after 24 hrs by MTT assay. In kind it is cell-based. As to conditions: Macrophage. On the technique in general: Tetrazolium dyes change colour on reduction, which living cells bring about.
A short description of data set [2]: Cytotoxicity against Balb/C mouse macrophages assessed as cell mortality at 0.01 to 5 ug/ml after 24 hrs by MTT assay.

With `C[C@]12CC[C@H](OC(=O)c3ccc([N+](=O)[O-])cc3)CC1=CC[C@@H]1[C@@H]2CC[C@]2(C)NC(=O)CC[C@@H]12`, in data set [1], the 50% lethal concentration (LC50) turned out to be 27.8 µM.

On to `C[C@]12CC[C@H](OC(=O)COc3ccccc3)CC1=CC[C@@H]1[C@@H]2CC[C@]2(C)NC(=O)CC[C@@H]12`, for which the LC50 in data set [1] came to 11.7 µM.

Take `C[C@]12CC[C@H](OC(=O)c3ccc(O)cc3)CC1=CC[C@@H]1[C@@H]2CC[C@]2(C)NC(=O)CC[C@@H]12`: the mortality at 24 h in data set [2] stood at 20%. Moreover, the LC50 in data set [1] is 75 µM.

Turning to `COc1ccc(C(=O)O[C@H]2CC[C@@]3(C)C(=CC[C@@H]4[C@@H]3CC[C@]3(C)NC(=O)CC[C@@H]43)C2)cc1`, in data set [1], the LC50 was 8.4 µM.

In the case of `C[C@]12CC[C@H](OC(=O)c3ccc(Cl)cc3)CC1=CC[C@@H]1[C@@H]2CC[C@]2(C)NC(=O)CC[C@@H]12`, the LC50 in data set [1] was determined as 100 µM.

As for `Cc1ccc(C(=O)O[C@H]2CC[C@@]3(C)C(=CC[C@@H]4[C@@H]3CC[C@]3(C)NC(=O)CC[C@@H]43)C2)cc1`, the LC50 in data set [1] came out at 22.8 µM.

For the molecule `C[C@]12CC[C@H](OC(=O)CCl)CC1=CC[C@@H]1[C@@H]2CC[C@]2(C)NC(=O)CC[C@@H]12`, in data set [1], the LC50 turned out to be 94.1 µM.

Take `C[C@]12CC[C@H](OC(=O)c3ccccc3)CC1=CC[C@@H]1[C@@H]2CC[C@]2(C)NC(=O)CC[C@@H]12`: the LC50 in data set [1] amounted to 43.6 µM.

For the molecule `C[C@]12CC[C@H](OC(=O)c3ccc(N)cc3)CC1=CC[C@@H]1[C@@H]2CC[C@]2(C)NC(=O)CC[C@@H]12`, in data set [1], the LC50 was 25.1 µM.

In the case of `CC(C)(C)NC(=O)[C@H]1CC[C@H]2[C@@H]3CC[C@H]4NC(=O)C=C[C@]4(C)[C@H]3CC[C@]12C` [FINASTERIDE], in data set [1], the LC50 was 28.2 µM.
